# Results as given in patent US10000484B2, “Inhibitors of the renal outer medullary potassim channel” (MERCK SHARP & DOHME CORP., priority 2013, dated 2018).
# pIC50: −log10 of the molar value.
# Molecular target: T1, hROMK (hKir1.1) (Homo sapiens, UniProt P48048)
# T1 construct: expressed in transfected cells
# T1 sequence (P48048 1-391): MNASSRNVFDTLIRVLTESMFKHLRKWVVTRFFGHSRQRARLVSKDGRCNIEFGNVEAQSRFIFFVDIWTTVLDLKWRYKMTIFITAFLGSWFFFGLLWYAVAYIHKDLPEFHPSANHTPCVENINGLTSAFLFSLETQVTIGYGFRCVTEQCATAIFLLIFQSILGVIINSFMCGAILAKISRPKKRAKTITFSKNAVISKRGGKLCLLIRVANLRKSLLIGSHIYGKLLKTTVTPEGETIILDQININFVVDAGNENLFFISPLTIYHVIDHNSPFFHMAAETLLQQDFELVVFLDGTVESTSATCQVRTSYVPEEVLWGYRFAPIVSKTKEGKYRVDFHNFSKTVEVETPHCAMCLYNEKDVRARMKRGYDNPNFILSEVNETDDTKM
# Experiment: Thallium Flux Assay (ROMK channel functional thallium flux assay, FLIPR-Tetra)
# Type: cell-based
# Settings: HEK293 cells stably expressing hROMK; 30 min incubation with compound
# Method: The following Thallium Flux Assay was performed on each of the final product compounds in the Examples. When the final product of an Example was an HCl salt, the salt was run in the Assay.
# HEK293 cells stably expressing hROMK (hKir1.1) were grown at 37° C. in a 10% CO2 humidified incubator in complete growth media: Dulbecco's Modified Eagle Medium supplemented with non-essential amino acids, Penicillin/Streptomycin/Glutamine, G418 and FBS. At >80% confluency, aspirate the media from the flask and rinse with 10 mL Calcium/Magnesium-free PBS. Add 5 mL of 1× trypsin (prepared in Ca/Mg Free PBS) to T-225 flask and return flask to 37° C./CO2 incubator for 2-3 minutes. To dislodge the cell, gently bang the side of the flask with your hand. Triturate the cells completely and then transfer the cells to 25 mL complete media. Centrifuge at 1,500 rpm for 6 min followed by resuspension in complete growth media and determine cell concentration. For typical re-seeding, 4E6 cells/T-225 flask will attain >80% confluency in 4 days. Under ideal growth conditions and appropriate tissue culture practices, this cell line is stable for 40-45 passages.
# FluxOR Kit Components (Invitrogen F10017)
# • FluxOR™ Reagent (Component A) • FluxOR™ Assay Buffer (Component B)—10× Concentrate • PowerLoad™ Concentrate (Component C)—100× Concentrate • Probenecid (Component D)—Lyophilized sample is kept at −20° C. Water soluble, 100× after solubilization in 1 mL water. Store at 4° C. • FluxOR™ Chloride-free Buffer (Component E)—5× Concentrate • Potassium sulfate (K2SO4) Concentrate (Component F)—125 mM in water. Store at 4° C. • Thallium sulfate (Tl2SO4) Concentrate (Component G)—50 mM in water. Store at 4° C. • DMSO (dimethyl sulfoxide, Component H)—1 mL (100%) Reagent Preparation: FluxOR Working Solutions • 1000× FluxOR™ Reagent: Reconstitute a vial of component A in 100 μl DMSO; Mix well; Store 10 μl aliquots at −20° C. • 1× FluxOR™ Assay Buffer: Dilute Component B 10-fold with water; Adjust pH to 7.4 with Hepes/NaOH; Filter and store at 4° C. • Probenecid/Assay Buffer: 100 mL of 1× FluxOR™ Assay Buffer; 1 mL of reconstituted component D; Store at 4° C. • Loading Buffer (per microplate): 10 μl 1000× FluxOR™ Reagent; 100 μl component C; 10 mL Probenecid/Assay Buffer • Compound Buffer (per microplate): 20 mL Probenecid/Assay Buffer; 0.3 mM ouabain (10 mM ouabain in water can be stored in amber bottle/aluminum foil at room temperature); Test compound • 1× FluxOR™ Chloride-Free Buffer: Prepare 1× working solution in water. Can be stored at room temperature • Stimulant Buffer (prepared at 5× final concentration in 1× FluxOR™ Chloride-Free Buffer): 7.5 mM Thallium sulfate and 0.75 mM Potassium sulfate (to give a final assay concentration of 3 mM Thallium/0.3 mM Potassium). Store at 4° C. when not in use. Assay Protocol—
# The ROMK channel functional thallium flux assay is performed in 384 wells, using the FLIPR-Tetra instrument. HEK-hKir1.1 cells are seeded in Poly-D-Lysine microplates and kept in a 37° C.-10% CO2 incubator overnight. On the day of the experiment, the growth media is replaced with the FluxOR™ reagent loading buffer and incubated, protected from light, at ambient temperature (23-25° C.) for 90 min. The loading buffer is replaced with assay buffer±test compound followed by 30 min incubation at ambient temperature, where the Thallium/Potassium stimulant is added to the microplate.
# 1. Seed HEK-hKir1.1 cells (50 μl at 20,000 cells/well) in 384-well PDL coated Microplates
# 2. Allow cells to adhere overnight in humidified 37° C./10% CO2 incubator
# 3. Completely remove cell growth media from microplate and replace with 25 μl loading buffer
# 4. Incubate Microplate at room temperature, protected form light, for 90 min
# 5. Remove loading buffer and replace with 25 μl 1× Assay Buffer±test compound.
# 6. Incubate microplate at room temperature, protected from light, for 30 min
# 7. At FLIPR-Tetra 384: Add stimulant (Thallium/Potassium) solution to microplate and monitor fluorescence. […]
row,SMILES,pIC50
1,"Cc1c(CCN2CCn3c(-c4ccc5c(c4)COC5=O)cnc3C2)ccc2c1COC2=O [Example 12, 4-methyl-5-{2-[3-(1-oxo-1,3-dihydro-2-benzofuran-5-yl)-5,6-dihydroimidazo[1,2-a]pyrazin-7(8H)-yl]ethyl}-2-benzofuran-1(3H)-one]",6.91
2,"Cc1c(CCN2CCn3cc(-c4ccc5c(c4)COC5=O)nc3C2)ccc2c1COC2=O [Example 13, 4-methyl-5-{2-[2-(1-oxo-1,3-dihydro-2-benzofuran-5-yl)-5,6-dihydroimidazo[1,2-a]pyrazin-7(8H)-yl]ethyl}-2-benzofuran-1(3H)-one]",6.87
3,"COc1cc(-c2nnc3n2CCN(CCc2ccc4c(c2C)COC4=O)C3)ccc1C#N [Example 14, 2-methoxy-4-{7-[2-(4-methyl-1-oxo-1,3-dihydro-2-benzofuran-5-yl)ethyl]-5,6,7,8-tetrahydro[1,2,4]triazolo[4,3-a]pyrazin-3-yl}benzonitrile]",7.07
4,"Cc1c(CCN2CCn3nc(-c4ccc5c(c4)COC5=O)nc3C2)ccc2c1COC2=O [Example 16, 4-methyl-5-{2-[2-(1-oxo-1,3-dihydro-2-benzofuran-5-yl)-5,6-dihydro[1,2,4]triazolo[1,5-a]pyrazin-7(8H)-yl]ethyl}-2-benzofuran-1(3H)-one]",7.05
5,"Cc1c(CCN2CCn3cc(-c4ccc5c(c4)CCOC5=O)nc3C2)ccc2c1COC2=O [Example 17, 6-{7-[2-(4-methyl-1-oxo-1,3-dihydro-2-benzofuran-5-yl)ethyl]-5,6,7,8-tetrahydroimidazo[1,2-a]pyrazin-2-yl}-3,4-dihydro-1H-isochromen-1-one]",6.18
6,"Cc1c(CCN2CCc3nc(-c4ccc5c(c4)COC5=O)oc3C2)ccc2c1COC2=O [Example 18, 4-methyl-5-{2-[2-(1-oxo-1,3-dihydro-2-benzofuran-5-yl)-6,7-dihydro[1,3]oxazolo[5,4-c]pyridin-5(4H)-yl]ethyl}-2-benzofuran-1(3H)-one]",7.13
7,"Cc1c(CCN2CCn3c(nn(-c4ccc(C#N)c(F)c4)c3=O)C2)ccc2c1COC2=O [Example 24, 2-fluoro-4-{7-[2-(4-methyl-1-oxo-1,3-dihydro-2-benzofuran-5-yl)ethyl]-3-oxo-5,6,7,8-tetrahydro[1,2,4]triazolo[4,3-a]pyrazin-2(3H)-yl}benzonitrile]",6.75
8,"Cc1c(CCN2CCn3c(nn(-c4ccc5c(c4)COC5=O)c3=O)C2)ccc2c1COC2=O [Example 25, 7-[2-(4-methyl-1-oxo-1,3-dihydro-2-benzofuran-5-yl)ethyl]-2-(1-oxo-1,3-dihydro-2-benzofuran-5-yl)-5,6,7,8-tetrahydro[1,2,4]triazolo[4,3-a]pyrazin-3(2H)-one]",7.03
9,Cc1c(CCN2CC[C@H]3[C@@H](C2)OC(=O)N3Cc2ccc3c(c2C)COC3=O)ccc2c1COC2=O [Example 28],6.95
10,Cc1c(CCN2CC[C@@H]3[C@@H](C2)OC(=O)N3Cc2ccc3c(c2C)COC3=O)ccc2c1COC2=O [Example 29],6.70
11,"Cc1c(CCN2CCc3c(cnn3-c3ccc(C#N)c(F)c3)C2)ccc2c1COC2=O [Example 30, 2-fluoro-4-(5-(2-(4-methyl-1-oxo-1,3-dihydroisobenzofuran-5-yl)ethyl)-4,5,6,7-tetrahydro-1H-pyrazolo[4,3-c]pyridin-1-yl)benzonitrile]",7.56
12,"CC1=C(N2CC3=C(CCN(C[C@H](O)c4ccc5c(c4C)COC5=O)CC3)C2=O)COC1=O [Example 31, (R)-6-(2-Hydroxy-2-(4-methyl-1-oxo-1,3-dihydroisobenzofuran-5-yl)ethyl)-2-(4-methyl-5-oxo-2,5-dihydrofuran-3-yl)-2,3,5,6,7,8-hexahydropyrrolo[3,4-d]azepin-1(4H)-one]",7.19

# Second part, the compound after the results:
row,pIC50,SMILES
1,6.32,"Cc1cc(C#N)ccc1-c1ncc2c(n1)CCN(CCc1ccc3c(c1C)COC3=O)C2 [Example 1, 3-methyl-4-(6-(2-(4-methyl-1-oxo-1,3-dihydroisobenzofuran-5-yl)ethyl)-5,6,7,8-tetrahydropyrido[4,3-d]pyrimidin-2-yl)benzonitrile]"
2,7.36,"N#Cc1ccc(-n2cc3c(n2)CCN(CCc2ccc4c(c2)COC4=O)C3)cc1 [Example 5, 4-{5-[2-(1-oxo-1,3-dihydro-2-benzofuran-5-yl)ethyl]-4,5,6,7-tetrahydro-2H-pyrazolo[4,3-c]pyridin-2-yl}benzonitrile]"
3,7.13,"O=C1OCc2cc(CCN3CCc4nc(-c5ccc(-n6cnnn6)cc5)ncc4C3)ccc21 [Example 6, 6-[2-(1-oxo-1,3-dihydro-2-benzofuran-5-yl)ethyl]-2-[4-(1H-tetrazol-1-34)phenyl]-5,6,7,8-tetrahydropyrido[4,3-d]pyrimidine-1,6-diium]"
4,6.77,"Cc1c(CCN2CCc3nc(-c4ccc(-n5cnnn5)cc4)ncc3C2)ccc2c1COC2=O [Example 7, 6-[2-(4-methyl-1-oxo-1,3-dihydro-2-benzofuran-5-yl)ethyl]-2-[4-(1H-tetrazol-1-yl)phenyl]-5,6,7,8-tetrahydropyrido[4,3-d]pyrimidine-1,6-diium]"
5,7.08,"COc1cc(-c2ncc3c(n2)CCN(CCc2ccc4c(c2C)COC4=O)C3)ccc1C#N [Example 11, 2-methoxy-4-{6-[2-(4-methyl-1-oxo-1,3-dihydro-2-benzofuran-5-yl)ethyl]-5,6,7,8-tetrahydropyrido[4,3-d]pyrimidin-2-yl}benzonitrile]"
6,6.70,"C[C@H]1Cc2cc(CCN3CCn4cc(-c5ccc6c(c5)COC6=O)nc4C3)ccc2C(=O)O1 [Example 19, (3S)-3-methyl-6-{2-[2-(1-oxo-1,3-dihydro-2-benzofuran-5-yl)-5,6-dihydroimidazo[1,2-a]pyrazin-7(8H)-yl]ethyl}-3,4-dihydro-1H-isochromen-1-one]"
7,6.72,"O=C1OCCc2cc(CCN3CCn4cc(-c5ccc6c(c5)COC6=O)nc4C3)ccc21 [Example 20, 6-{2-[2-(1-oxo-1,3-dihydro-2-benzofuran-5-yl)-5,6-dihydroimidazo[1,2-a]pyrazin-7(8H)-yl]ethyl}-3,4-dihydro-1H-isochromen-1-one]"
8,6.35,Cc1c(CCN2CCc3nc(-c4ccc(C#N)cn4)ncc3C2)ccc2c1COC2=O [Example 21]
9,6.36,Cc1c(CCN2CCc3nc(-c4ccc(F)c(C#N)c4)ncc3C2)ccc2c1COC2=O [Example 22]
10,6.68,COc1ccc(-c2ncc3c(n2)CCN(CCc2ccc4c(c2C)COC4=O)C3)cc1C#N [Example 23]
11,6.50,Cc1c(CCN2CCc3nc(-c4ccc(C#N)cc4F)ncc3C2)ccc2c1COC2=O [Example 26]
12,7.15,Cc1c(CCN2CCc3nc(-c4ccc(C#N)c(F)c4)ncc3C2)ccc2c1COC2=O [Example 27]
